The target in this assay is T1, FPRL1 (Homo sapiens, UniProt P25090).
T1 construct: expressed in transfected cells; host or cells: RBL-2H3 (rat basophilic leukemia) cells, G418-selected
T1 sequence (P25090 1-351): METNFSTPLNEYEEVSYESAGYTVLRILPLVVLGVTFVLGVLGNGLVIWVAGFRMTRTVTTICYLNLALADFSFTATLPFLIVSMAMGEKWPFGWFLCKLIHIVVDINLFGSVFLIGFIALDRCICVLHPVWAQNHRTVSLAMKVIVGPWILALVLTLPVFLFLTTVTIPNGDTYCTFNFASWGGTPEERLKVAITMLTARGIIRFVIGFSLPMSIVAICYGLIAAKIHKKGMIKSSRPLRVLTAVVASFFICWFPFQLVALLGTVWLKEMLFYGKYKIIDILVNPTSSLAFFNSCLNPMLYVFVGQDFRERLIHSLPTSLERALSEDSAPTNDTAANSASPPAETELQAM
Nature of the assay: ERK phosphorylation in FPRL1-expressing RBL-2H3 cells (immunoblot). The format is cell-based. On the procedure:
Cultured RBL-2H3 cells were aliquoted into 2×10^6 cells and stimulated with the indicated concentrations of WKYMVm and the peptides of the present invention for the indicated lengths of time. FPR- or FPRL1-expressing RBL-2H3 cells were stimulated with 1 μM WKYMVm for various periods of time (FIG. 3A). Two cells were preincubated with a vehicle or 100 ng/ml of PTX (24 hr), 50 μM of LY294002 (15 min), 5 μM of GFX (15 min), 10 μM BAPTA/AM (60 min), or 50 μM PD98059 (60 min) prior to 1 μM of WKYMVm treatment (FIG. 3B). FPR- or FPRL1-expressing RBL2H3 cells were stimulated with 10 μM of the peptides of the present invention for 2 min or 5 min, respectively (FIG. 3C).
After stimulation, the cells were washed with serum-free RPMI and lysed in a lysis buffer (20 mM Hepes, pH 7.2, 10% glycerol, 150 mM NaCl, 1% Triton X-100, 50 mM NaF, 1 mM Na3VO4, 10 μg/ml leupeptin, 10 μg/ml aprotinin, and 1 mM phenylmethylsulfonyl fluoride). The detergent-insoluble materials were pelleted by centrifugation (12,000×g, 15 min, at 4° C.), and the soluble supernatant fraction was removed and stored at −80° C. or used immediately. Protein concentrations in the lysates were determined using the Bradford protein assay reagent.
Each sample ([…] of protein) was subjected to 10% SDS-PAGE and phosphorylated ERK was determined by an immunoblot analysis with an anti-phospho-ERK antibody. Protein samples were prepared for electrophoresis by addition of a concentrated sample buffer. The portions in the samples were then separated by an 10% SDS-polyacrylamide gel using the buffer system described by Laemmli (17).
Following the electrophoresis, a western blot analysis with an anti-ERK2 antibody was performed to confirm that the same amounts of samples were used for the experiments. The proteins were blotted onto nitrocellulose membranes. The nitrocellulose membranes were then blocked by incubation with TBS (Tris-buffered saline, 0.05% Tween-20) containing 5% non-fat dry milk. Subsequently, the membranes were incubated with anti-phospho-ERK antibody, anti-phospho-Akt antibody or anti-Akt antibody washed with TBS. For a PKC translocation assay, an antibody for PKC isozyme-specific was incubated. Antigen-antibody complexes were visualized after incubating the membrane with a 1:5000 diluted goat anti-rabbit IgG or goat anti-mouse IgG antibody coupled to horseradish peroxidase and using the enhanced chemiluminescence detection system.
For orientation: Immunoblotting shows a protein as a band on a membrane.

`CSCC[C@H](NC(=O)[C@H](Cc1ccc(O)cc1)NC(=O)[C@H](CCCCN)NC(=O)[C@@H](N)Cc1c[nH]c2ccccc12)C(=O)N[C@H](C(=O)N[C@H](CCSC)C(N)=O)C(C)C` [WKYMVm-NH2, Trp-Lys-Tyr-Met-Val-D-Met-NH2, reference compound]: the “time of maximal ERKs activity after peptide treatment” value (1 μM WKYMVm) was determined as 5 min. Under “10 μM peptides 5 min (WKYMVm time course 1 μM)”, the “ERKs phosphorylation/activation” value is “induced transient activation of ERKs”.

The values are drawn from patent US7517857B2, “Immune-modulating peptide” (POSCO, priority 2002, dated 2009).
